Paper PMC7724566, “Prospects for Clinical Development of Stat5 Inhibitor IST5-002: High Transcriptomic Specificity in Prostate Cancer and Low Toxicity In Vivo” (Cancers, 2020)

Legend:
[1] = system: patient-derived clinical PCs; set-up: method as in PMID 26026053, PMID 31548294; conditions: 3D tumor explant cultures; cited from earlier work
TYK2 = TYK2 (Homo sapiens, UniProt P29597); experiment: Radiometric filtration binding cell-free kinase assay; format: biochemical; set-up: purchased Reaction Biology (JAK1/2/3, TYK2); Luceome Biotechnologies KinaseSeeker (others); conditions: percent activity of kinase after exposure to IST5 1 µM
Method: (§1) For Jak1, Jak2, Jak3 and Tyk2, a radiometric filtration binding assay was conducted by Reaction Biologicals (Malvern, PA, USA) (Table 1). This radiometric assay is a cell-free assay which is based on conventional filter-binding assays, directly measuring kinase catalytic activity toward a specific substrate. For evaluation of the activity of the other kinases, the Kinase Seeker Technology was utilized (Luceome Biotechnologies, Tucson, AZ, USA), which is a luminescence-based cell-free assay. In this assay, the reassembly of luciferase fragments is mediated by the interaction of a kinase with an active site-dependent probe. The competitive displacement of the probe by an inhibitor is measured by a change in luminescence signal. Percent activity of each kinase after exposure to IST5 (1 µM) is presented.

JAK1 = JAK1 (Homo sapiens, UniProt P23458); experiment: as above; format: biochemical; set-up: purchased Reaction Biology (JAK1/2/3, TYK2); Luceome Biotechnologies KinaseSeeker (others); conditions: percent activity of kinase after exposure to IST5 1 µM
Method: as §1

[2] = system: C57BL/6J and athymic nude mice; experiment: Acute and chronic toxicity studies, clinical observation and histology; format: in vivo
Method: The acute and chronic toxicity studies were carried out in both male C57BL/6J and athymic nude mice (Table 3 and Table 4) using daily administration of IST5 vs. vehicle at doses of 0, 10, 30 and 100 mg/kg (n = 5/dose) as well as in female (data not shown) mice. There were no signs of anemia (hemoglobin-HGB; hematocrit-HCT), thrombocytopenia or leukopenia. In either acute or chronic toxicity studies, there was no mortality in the mice associated with IST5 treatment. The gross histology of the liver, spleen (Figure 6), kidney and brain were normal (28 d). […] IST5 had no effects on body weight, organ weight, appearance, respiration, or eye function. Of note, a number of the Jak2 kinase inhibitors in use or in clinical development have shown off-target inhibitory effects on TrkB kinase (a receptor for brain-derived neurotrophic factor), thereby causing neurological side-effects.
Figure 6 IST5 […] significant chronic toxicity in vivo in mice. The chronic toxicity studies were carried out in both male and female C57BL/6J and athymic nude mice by daily administration of IST5 vs. vehicle at doses of 0, 10, 30 and 100 mg/kg (n = 5/dose). At the end of the study, heart, kidney, liver, lung and spleen tissues were fixed and stained with hematoxylin and eosin. The gross histology of heart, liver, spleen, kidney, spleen and brain were all normal (28 d).
Forty athymic nude mice (8 weeks) (Crl:NU/NCr-Foxn1n) of either sex (20 males and 20 females) were randomized into four groups (n = 5/group) for either sex. The randomization of the mice was carried out based on their baseline body weight measured on day 0. IST5 or vehicle (0.3% hydroxypropyl cellulose, (Sigma-Aldrich, MO, St. Louis, MO, USA) were administered to the mice by i.p. injection for 28 days. The mice were observed daily for behavior, and body weights were measured on every 3rd day throughout the 28-day experimental protocol. The monitoring was started immediately after the compound administration and continued for 2 h for any acute signs of toxicity. In addition, the mice were monitored daily for any signs of toxicity using several clinical parameters. The clinical signs that were taken into consideration were as follows: 1) weight loss: rapid weight loss ([…]) or, weight loss of extended period time ([…]); 2) rapid growth of mass or masses; 3) paralysis or paresis (partial paralysis); 4) frank bleeding from any orifice; 5) lesions interfering with eating or drinking; 6) diarrhea (non-formed/soft stool or diarrhea liquid stool); 6) loss of body temperature; 7) appearance: rough coat, porphyrin staining (red or brown staining around eyes, nose, or along front paws, distended abdomen, alopecia; 8) eyes: ocular discharge, pale appearance, distinct icterus (jaundice or yellowing of the eyes); 9) respiration: coughing or wheezing, rales or crackling in the lungs, respiration increased or labored; 10) behavioral: hunched posture, huddling in a corner, lethargy, avoiding cagemate(s), head tilt, tremors (head, body, tail), spasticity (stiff muscles), ataxia (loss of voluntary muscle movement), seizures or convulsions, circling, persistent self-induced trauma, chattering or vocalizations, loss of startle response, loss of righting reflex. The clinical chemistry parameters measured were the same as those used for the acute toxicity study.
The sub-chronic toxicity study (10 days) was carried out in C57BL/6J mice (8 weeks) (stock 000664) (n = 10/dose group 5 of each sex). […]

Chain of TYK2 (P29597 whole entry, the tested form may be a part): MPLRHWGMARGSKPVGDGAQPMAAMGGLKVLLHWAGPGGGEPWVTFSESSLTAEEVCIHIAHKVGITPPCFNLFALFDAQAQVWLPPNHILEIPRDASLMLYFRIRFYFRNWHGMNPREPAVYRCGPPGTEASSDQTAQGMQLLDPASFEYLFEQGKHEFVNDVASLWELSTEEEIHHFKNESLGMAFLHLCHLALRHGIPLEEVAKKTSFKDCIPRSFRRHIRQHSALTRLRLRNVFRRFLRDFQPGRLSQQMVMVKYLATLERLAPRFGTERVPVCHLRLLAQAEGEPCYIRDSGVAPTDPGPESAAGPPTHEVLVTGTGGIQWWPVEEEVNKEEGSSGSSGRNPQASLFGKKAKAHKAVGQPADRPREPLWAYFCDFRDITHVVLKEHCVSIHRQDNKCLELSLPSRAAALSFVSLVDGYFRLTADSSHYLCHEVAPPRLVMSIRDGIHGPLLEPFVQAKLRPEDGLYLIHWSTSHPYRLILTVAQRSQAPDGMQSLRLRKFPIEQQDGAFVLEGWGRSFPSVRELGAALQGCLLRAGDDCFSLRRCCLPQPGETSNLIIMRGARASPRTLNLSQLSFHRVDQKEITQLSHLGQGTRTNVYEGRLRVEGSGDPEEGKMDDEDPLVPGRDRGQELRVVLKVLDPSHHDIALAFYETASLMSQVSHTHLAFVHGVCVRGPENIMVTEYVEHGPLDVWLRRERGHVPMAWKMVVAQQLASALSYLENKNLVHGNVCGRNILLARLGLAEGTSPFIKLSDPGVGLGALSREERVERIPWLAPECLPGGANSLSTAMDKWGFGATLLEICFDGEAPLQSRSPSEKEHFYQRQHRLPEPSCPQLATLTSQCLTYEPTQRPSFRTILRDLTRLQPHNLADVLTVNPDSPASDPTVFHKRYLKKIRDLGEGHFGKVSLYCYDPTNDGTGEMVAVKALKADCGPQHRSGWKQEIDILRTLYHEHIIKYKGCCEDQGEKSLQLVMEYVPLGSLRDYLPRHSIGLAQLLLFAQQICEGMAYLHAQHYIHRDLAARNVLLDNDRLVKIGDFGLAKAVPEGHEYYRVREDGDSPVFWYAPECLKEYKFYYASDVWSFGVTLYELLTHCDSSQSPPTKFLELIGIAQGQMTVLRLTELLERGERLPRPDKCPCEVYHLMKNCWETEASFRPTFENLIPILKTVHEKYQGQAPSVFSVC
Chain of JAK1 (P23458 whole entry): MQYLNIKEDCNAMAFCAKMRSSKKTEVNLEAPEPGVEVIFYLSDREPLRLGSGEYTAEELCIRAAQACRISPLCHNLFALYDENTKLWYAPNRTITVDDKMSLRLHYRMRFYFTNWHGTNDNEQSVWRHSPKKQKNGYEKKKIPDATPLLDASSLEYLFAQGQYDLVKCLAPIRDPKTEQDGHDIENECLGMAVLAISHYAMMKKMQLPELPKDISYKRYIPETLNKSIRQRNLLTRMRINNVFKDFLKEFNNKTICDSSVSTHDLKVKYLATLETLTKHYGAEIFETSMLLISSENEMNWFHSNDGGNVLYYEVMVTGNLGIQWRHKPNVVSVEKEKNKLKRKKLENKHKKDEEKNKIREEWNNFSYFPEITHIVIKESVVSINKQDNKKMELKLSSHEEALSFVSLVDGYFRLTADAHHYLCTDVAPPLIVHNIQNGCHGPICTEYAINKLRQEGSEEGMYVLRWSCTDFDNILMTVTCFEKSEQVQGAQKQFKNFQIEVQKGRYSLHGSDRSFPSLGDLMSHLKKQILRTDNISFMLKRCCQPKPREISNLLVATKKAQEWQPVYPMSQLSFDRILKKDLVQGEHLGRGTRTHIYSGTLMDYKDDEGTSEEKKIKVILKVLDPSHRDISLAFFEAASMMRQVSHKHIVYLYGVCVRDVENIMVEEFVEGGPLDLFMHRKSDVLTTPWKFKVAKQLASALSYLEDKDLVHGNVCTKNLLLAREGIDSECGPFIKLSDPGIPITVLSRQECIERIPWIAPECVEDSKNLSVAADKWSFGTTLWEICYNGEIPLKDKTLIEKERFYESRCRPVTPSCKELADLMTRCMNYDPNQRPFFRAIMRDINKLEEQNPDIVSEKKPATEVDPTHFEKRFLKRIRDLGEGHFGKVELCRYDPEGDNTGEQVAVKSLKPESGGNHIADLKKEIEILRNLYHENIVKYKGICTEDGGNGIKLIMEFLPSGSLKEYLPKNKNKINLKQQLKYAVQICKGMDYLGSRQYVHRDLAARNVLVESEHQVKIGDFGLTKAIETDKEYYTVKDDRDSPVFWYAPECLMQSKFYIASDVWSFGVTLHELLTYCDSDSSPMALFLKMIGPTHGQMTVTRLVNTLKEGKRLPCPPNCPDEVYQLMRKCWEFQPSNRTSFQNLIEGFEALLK

Compound: O=P(O)(O)OCC1OC(n2cnc3c(NCc4ccccc4)ncnc32)C(O)C1O (centres unmarked) [IST5]
- apoptotic death in patient-derived clinical PCs ex vivo [1]: induce apoptotic death
- Activity (TYK2): 100.0%
- Activity (JAK1): 96.2%
- mortality associated with treatment ([2]; acute or chronic toxicity studies, 10, 30 and 100 mg/kg): no mortality
- signs of anemia, thrombocytopenia or leukopenia ([2]; daily 10, 30 and 100 mg/kg): no signs
- adverse effects on blood clinical chemistry (blood urea, liver enzymes, glucose, albumin) ([2]; mouse, in vivo): no adverse effects
- effects on body weight, organ weight, appearance, respiration, or eye function ([2]; mouse, in vivo): no effects
- gross histology of liver, spleen, kidney and brain ([2]; mouse, in vivo): normal
